In patent EP1140909B1, “NOVEL INHIBITORS OF FARNESYL-PROTEIN TRANSFERASE” (Schering Corporation, priority 1998, dated 2000) one finds IC50 data, which are given here for 16 molecules.

The test concerns the target T1, partially purified rat brain farnesyl protein transferase (FPT) (Rattus norvegicus, UniProt Q02293+Q04631).
T1 construct: partially purified rat brain farnesyl protein transferase (FPT); from tissue; host or cells: rat brain
Nature of the test: FPT IC50 in vitro enzyme assay (inhibition of Ras-CVLS farnesylation). It is filed as biochemical. Conditions: inhibition of Ras-CVLS famesylation; methods of WO/10515 or WO 95/10516. How it is done: 1. In vitro enzyme assays: FPT IC50 (inhibition of farnesyl protein transferase, in vitro enzyme assay) are determined by the methods disclosed in […] or WO 95/10516.

“And” between values parts separate entries of the source, which are not always exact repeats. Identical values can stand only once.

T1 sequence (Q02293 whole entry, one chain of several): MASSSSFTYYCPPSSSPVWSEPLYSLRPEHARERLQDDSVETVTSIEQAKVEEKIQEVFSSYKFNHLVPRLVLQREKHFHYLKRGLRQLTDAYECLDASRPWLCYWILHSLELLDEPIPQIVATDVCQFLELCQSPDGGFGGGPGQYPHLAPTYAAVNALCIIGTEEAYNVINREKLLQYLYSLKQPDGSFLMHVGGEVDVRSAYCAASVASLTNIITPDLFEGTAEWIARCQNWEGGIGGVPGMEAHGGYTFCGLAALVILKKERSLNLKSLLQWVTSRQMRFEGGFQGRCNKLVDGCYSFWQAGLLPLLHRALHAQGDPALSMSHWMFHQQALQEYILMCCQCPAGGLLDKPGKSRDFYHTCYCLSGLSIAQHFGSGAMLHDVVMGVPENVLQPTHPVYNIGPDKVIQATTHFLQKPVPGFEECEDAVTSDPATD

The IC50 is the concentration that inhibits the measured activity by half. Read a low IC50 as inhibition by little substance. In the case of `CC(c1ccccc1)N1CCN(C(=O)NC2CCCCC2)[C@@H](C(=O)NCCc2cncn2Cc2ccc(C#N)cc2)C1` (stereo partly drawn) [Example 1, N2-[2-[1-[(4-cyanophenyl)methyl]-1H-imidazol-5-yl]ethyl]-N1-cyclohexyl-4-(1-phenylethyl)-1,2(R)-piperazinedicarboxamide], the IC50 fell in the range of 0.18 to 21 nM.

Turning to `N#Cc1ccc(Cn2cncc2CCNC(=O)[C@H]2CN(Cc3ccncc3)CCN2C(=O)NC2CCCCC2)cc1` [Example 5], the half-inhibitory concentration (IC50) lay within 0.18 to 21 nM.

Regarding `N#Cc1ccc(Cn2cncc2CCNC(=O)[C@H]2CN(CC3CC4C=CC3C4)CCN2C(=O)NC2CCCCC2)cc1` (stereo partly shown) [Example 6], the IC50 lay in the range of 0.18 to 21 nM.

For `CC(=O)Nc1ccc(CN2CCN(C(=O)NC3CCCCC3)[C@@H](C(=O)NCCc3cncn3Cc3ccc(C#N)cc3)C2)cc1` [Example 20], the IC50 was in the range of 0.18 to 1.5 nM.

`N#Cc1ccc(Cn2cncc2CCNC(=O)[C@H]2CN(Cc3cccc(Cl)c3)CCN2C(=O)NC2CCCCC2)cc1` [Example 25] registered an IC50 of 0.18 to 1.5 nM.

The molecule `COc1cccc(CN2CCN(C(=O)NC3CCCCC3)[C@@H](C(=O)NCCc3cncn3Cc3ccc(C#N)cc3)C2)c1` [Example 26] gave an IC50 of 0.18 to 1.5 nM.

On to `COc1ccccc1CN1CCN(C(=O)NC2CCCCC2)[C@@H](C(=O)NCCc2cncn2Cc2ccc(C#N)cc2)C1` [Example 27], for which the half-maximal inhibitory concentration (IC50) lay in the range of 0.18 to 1.5 nM.

`CCCC(=O)N1CCN(Cc2ccccc2)CC1C(=O)NCCc1cncn1Cc1ccc(C#N)cc1` (stereo not shown) [Example 28F] displayed an IC50 of 0.18 to 21 nM.

As for `N#Cc1ccc(Cn2cncc2CCNC(=O)C2CN(Cc3ccccc3)CCN2C(=O)c2ccccc2)cc1` (stereo not shown) [Example 28G], the IC50 is 0.18 to 21 nM.

On to `N#Cc1ccc(Cn2cncc2CCNC(=O)C2CN(Cc3ccccc3)CCN2C(=O)Cc2ccccc2)cc1` (stereo not shown) [Example 28I], for which the half-inhibitory concentration (IC50) lay within 0.18 to 21 nM.

`N#Cc1ccc(Cn2cncc2CCNC(=O)C2CN(Cc3ccccc3)CCN2S(=O)(=O)Cc2ccccc2)cc1` (stereo not shown) [Example 28M]: the IC50 fell in the range of 0.18 to 21 nM.

For `CC(C)(C)NC(=O)N1CCN(Cc2ccccc2)CC1C(=O)NCCc1cncn1Cc1ccc(C#N)cc1` (stereo not shown) [Example 28O], the IC50 was 0.18 to 21 nM and 0.18 to 1.5 nM.

`N#Cc1ccc(Cn2cncc2CCNC(=O)C2CN(Cc3ccccc3)CCN2C(=O)CC2CCN(C(N)=O)CC2)cc1` (stereo not shown) [Example 28Q]: the IC50 lay in the range of 0.18 to 21 nM.

Consider `O=C(C1CN(Cc2ccccc2)CCN1C(=O)NC1CCCCC1)N(CCCn1ccnc1)Cc1ccccc1` (stereo not shown) [Example 28S], for which the IC50 was 0.18 to 21 nM.

`CC(C)(C)NC(=O)N1CCN(Cc2ccccc2)CC1C(=O)N(CCCn1ccnc1)Cc1ccccc1` (stereo not shown) [Example 28T] came in with a half-maximal inhibitory concentration (IC50) of 0.18 to 21 nM.

In the case of `N#Cc1ccc(Cn2cncc2CCNC(=O)[C@H]2CN(Cc3ccccc3Cl)CCN2C(=O)NC2CCCCC2)cc1` [Example 28], the IC50 fell in the range of 0.18 to 1.5 nM.
